Experiment [1] has as its target Y641N EZH2 (Homo sapiens, UniProt Q15910, Y641N). Nature of the experiment: Y641N EZH2 assay: performed as the EZH2 assay, using reconstituted H3K27Me2 oligonucleosomes as substrate. The format is biochemical. Here is the method:
Assays were carried out by mixing rPRC2 together with biotinylated oligonucleosome substrates in the presence of the radio-labeled enzyme co-factor, S-adenosyl-L-methionine (^3H SAM) (Perkin Elmer) and monitoring the enzymatically mediated transfer of tritiated methyl groups from ^3H SAM to histone lysine residues. The amount of resulting tritated methylhistone product was measured by first capturing the biotinylated oligonuclesomes in streptavidin (SAV) coated FlashPlates (Perkin Elmer), followed by a wash step to remove un-reacted ^3H SAM, and then counting on a TopCount NXT 384 well plate scintillation counter (Perkin Elmer). The final assay conditions for EZH2 were as follows: 50 mM Tris Buffer pH 8.5, 1 mM DTT, 69 uM Brij-35 detergent, 5.0 mM MgCl2, 0.1 mg/mL BSA, 0.2 uM ^3H SAM, 0.2 uM biotinylated oligonucleosomes, 3.6 uM H3K27me3 peptide and 2 nM EZH2.
Compound IC50 measurements were obtained as follows: Compounds were first dissolved in 100% DMSO as 10 mM stock solutions. […] A 12.5 uL volume of the HMT enzyme, H3K27me3 peptide and oligonucleosome substrate in assay buffer was added to each well of the assay plate using a Multidrop Combi (ThermoFisher). Compounds were pre-incubated with the enzyme for 20 min, followed by initiation of the methyltransferase reaction by addition of 12.5 uL of 3H SAM in assay buffer (final volume=25 uL). The final concentrations of compounds ranged from a top default concentration of 80 uM down to 0.16 uM in ten 2-fold dilution steps. Reactions were carried out for 60 minutes and quenched with 20 uL per well of 1.96 mM SAH, 50 mM Tris PH 8.5, 200 mM EDTA. Stopped reactions were transferred to SAV coated Flashplates (Perkin Elmer), incubated for 120 min, washed with a plate washer, and then read on the TopCount NXT (1.0 min/well) to measure the amount of methylhistone product formed during the reaction. The amount of methylhistone product was compared with the amount of product formed in the 0% and 100% inhibition control wells allowing the calculation of % Inhibition in the presence of the individual compounds at various concentrations. IC50's were computed using a 4 parameter fit non-linear curve fitting software package (XLFIT, part of the database package, ActivityBase (IDBS)) where the four parameters were IC50, Hill slope, pre-transitional baseline (0% INH), and post-transitional baseline (100% INH); with the latter two parameters being fixed to zero and 100%, respectively, by default.

The target in experiment [2] is EZH2 (Homo sapiens, UniProt Q15910). The experiment is described as follows: EZH2 assay: rPRC2 with biotinylated oligonucleosome substrates and 3H SAM, FlashPlate scintillation counting, IC50. It counts as biochemical. The note with it: rPRC2, biotinylated oligonucleosome substrates, 3H SAM; read-out: EZH2 IC50. In short, it runs like this: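 IC50 from 4-parameter fit, baselines fixed at 0 and 100%. Compounds (top 80 uM, 2-fold series to 0.16 uM) pre-incubated 20 min with 2 nM EZH2-PRC2; 60-min methylation in pH 8.5 Tris with 0.2 uM 3H SAM, 0.2 uM oligonucleosomes, 3.6 uM H3K27me3 peptide.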
Sequence of EZH2 (Q15910 whole entry): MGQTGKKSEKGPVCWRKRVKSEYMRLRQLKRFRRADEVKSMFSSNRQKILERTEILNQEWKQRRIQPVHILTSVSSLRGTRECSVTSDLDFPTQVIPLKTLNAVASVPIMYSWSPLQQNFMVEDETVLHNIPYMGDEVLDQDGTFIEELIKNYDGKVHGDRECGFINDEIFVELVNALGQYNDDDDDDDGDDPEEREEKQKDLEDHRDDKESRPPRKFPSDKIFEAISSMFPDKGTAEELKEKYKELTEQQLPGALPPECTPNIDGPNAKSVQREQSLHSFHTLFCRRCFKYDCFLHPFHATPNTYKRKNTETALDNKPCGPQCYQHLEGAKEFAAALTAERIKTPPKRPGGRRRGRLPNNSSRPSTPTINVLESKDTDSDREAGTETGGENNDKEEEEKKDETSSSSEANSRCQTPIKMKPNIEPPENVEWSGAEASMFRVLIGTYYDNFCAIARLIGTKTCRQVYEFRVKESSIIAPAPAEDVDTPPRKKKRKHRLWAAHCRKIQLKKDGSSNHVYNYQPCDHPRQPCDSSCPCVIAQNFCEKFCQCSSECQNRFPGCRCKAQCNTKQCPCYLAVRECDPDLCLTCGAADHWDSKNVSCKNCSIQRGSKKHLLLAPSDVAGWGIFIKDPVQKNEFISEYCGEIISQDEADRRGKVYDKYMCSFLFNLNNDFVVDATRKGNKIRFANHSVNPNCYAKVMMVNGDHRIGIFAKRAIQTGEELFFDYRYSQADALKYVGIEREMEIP
Sequence of EZH2 (O75530 whole entry partner): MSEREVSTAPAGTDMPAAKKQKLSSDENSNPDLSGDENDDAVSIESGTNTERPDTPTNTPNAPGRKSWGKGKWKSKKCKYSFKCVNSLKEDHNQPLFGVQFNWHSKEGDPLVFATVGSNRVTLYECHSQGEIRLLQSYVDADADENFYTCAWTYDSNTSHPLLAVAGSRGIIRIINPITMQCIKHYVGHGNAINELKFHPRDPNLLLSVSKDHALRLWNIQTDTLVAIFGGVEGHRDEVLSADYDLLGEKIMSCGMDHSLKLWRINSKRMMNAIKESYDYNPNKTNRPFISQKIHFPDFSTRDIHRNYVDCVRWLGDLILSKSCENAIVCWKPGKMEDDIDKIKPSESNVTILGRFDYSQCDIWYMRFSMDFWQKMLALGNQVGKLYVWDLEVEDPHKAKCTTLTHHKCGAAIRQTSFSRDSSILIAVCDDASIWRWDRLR
Sequence of EZH2 (Q15022 whole entry partner): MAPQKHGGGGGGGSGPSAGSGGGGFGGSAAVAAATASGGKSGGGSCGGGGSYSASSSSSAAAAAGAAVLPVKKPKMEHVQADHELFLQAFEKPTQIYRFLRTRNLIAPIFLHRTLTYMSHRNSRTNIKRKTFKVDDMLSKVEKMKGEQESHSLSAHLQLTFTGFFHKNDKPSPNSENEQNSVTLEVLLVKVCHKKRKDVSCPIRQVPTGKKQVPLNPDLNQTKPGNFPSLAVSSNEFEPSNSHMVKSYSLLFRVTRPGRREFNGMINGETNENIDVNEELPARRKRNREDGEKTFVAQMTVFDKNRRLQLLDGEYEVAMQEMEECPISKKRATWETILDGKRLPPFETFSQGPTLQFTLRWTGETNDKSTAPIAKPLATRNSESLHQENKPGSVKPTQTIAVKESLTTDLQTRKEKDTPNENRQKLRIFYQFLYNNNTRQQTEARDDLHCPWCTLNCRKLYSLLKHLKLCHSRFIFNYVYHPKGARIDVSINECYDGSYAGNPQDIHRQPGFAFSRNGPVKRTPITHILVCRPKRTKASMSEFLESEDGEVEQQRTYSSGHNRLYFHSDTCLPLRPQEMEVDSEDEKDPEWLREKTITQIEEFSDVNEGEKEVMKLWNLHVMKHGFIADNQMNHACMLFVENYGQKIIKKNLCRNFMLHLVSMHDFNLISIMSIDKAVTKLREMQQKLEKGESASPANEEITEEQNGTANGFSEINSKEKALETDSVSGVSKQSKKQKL

SMILES strings stand for the structures. pIC50: −log10 of the molar value. Where only a bound is given, the exact number is not on record here.

Sequence of Y641N EZH2 (Q15910 whole entry Y641N): as the sequence (Q15910 whole entry) above, with Y641N counted along it
Sequence of Y641N EZH2 (O75530 whole entry partner): as the sequence (O75530 whole entry partner) above
Sequence of Y641N EZH2 (Q15022 whole entry partner): as the sequence (Q15022 whole entry partner) above

Consider `Cc1ccc(-c2cccc(Oc3ccc(C(=O)NC4CC(C)(C)NC(C)(C)C4)cc3Cl)c2C#N)cn1` [Compound I-362], for which the pIC50 (usually −log10 of the IC50, conventionally taken in molar units) in experiment [1] is 4.70 to 5.30; in experiment [2], over 5.30.

Turning to `CC1(C)CC(NC(=O)c2ccc(Oc3cccc(-c4cccnc4)c3C#N)c(Br)c2)CC(C)(C)N1` [Compound I-364], the pIC50 in experiment [1] and in experiment [2] was over 5.30 throughout.

Consider `CC1(C)CC(NC(=O)c2ccc(Oc3cccc(-c4ccccn4)c3C#N)c(Cl)c2)CC(C)(C)N1` [Compound I-367], for which the pIC50 in experiment [1] and in experiment [2] was over 5.30 each time.

Turning to `CCc1cccc(Oc2ccc(C(=O)NC3CC(C)(C)NC(C)(C)C3)cc2Br)c1C#N` [Compound I-369], the pIC50 in experiment [1] and in experiment [2] was over 5.30 each time.

Take `CC1(C)CC(NC(=O)c2ccc(Oc3cccc(-c4ccnc(N)c4)c3C#N)c(Cl)c2)CC(C)(C)N1` [Compound I-375]: the negative-log IC50 (pIC50) in experiment [1] and in experiment [2] was over 5.30 each time.

For the molecule `CC1(C)CC(NC(=O)c2ccc(Oc3cccc(N4CCCC4)c3)c(Cl)c2)CC(C)(C)N1` [Compound I-379], the pIC50 in experiment [1] and in experiment [2] was 4.10 to 4.70 in each case.

As to `CNCc1cccc(Oc2ccc(C(=O)NC3CC(C)(C)NC(C)(C)C3)cc2Cl)c1C#N` [Compound I-381], the pIC50 in experiment [1] is 4.10 to 4.70; in experiment [2], over 5.30.

Turning to `CC1(C)CC(NC(=O)c2ccc(Oc3cccc(N4CCCC4=O)c3)c(Cl)c2)CC(C)(C)N1` [Compound I-385], the negative logarithm of the IC50 (pIC50) was under 4.10 in experiment [1] and 4.70 to 5.30 in experiment [2].

Consider `CN(C)C(=O)Cn1cc(-c2cccc(Oc3ccc(C(=O)NC4CC(C)(C)NC(C)(C)C4)cc3Cl)c2C#N)cn1` [Compound I-395], for which the pIC50 in experiment [1] is 4.70 to 5.30; in experiment [2] it was over 5.30.

On to `CC1(C)CC(NC(=O)c2ccc(Oc3cccc(N4CCOCC4=O)c3)c(Cl)c2)CC(C)(C)N1` [Compound I-397], for which the values for the pIC50 in experiment [1] and in experiment [2] were under 4.10 and 4.70 to 5.30, respectively.

As for `CC1(C)CC(NC(=O)c2ccc(Oc3cccc(-c4cn[nH]c4)c3C#N)c(F)c2)CC(C)(C)N1` [Compound I-398], the pIC50 was 4.70 to 5.30 in experiment [1] and over 5.30 in experiment [2].

Consider `CC1OC(=O)c2c(Oc3ccc(C(=O)NC4CC(C)(C)NC(C)(C)C4)cc3Cl)cccc21` (stereo not shown) [Compound I-401], for which the pIC50 in experiment [1] and in experiment [2] was over 5.30 each time.

Take `CC1(C)CC(NC(=O)c2ccc(Cn3ccnc3)cc2)CC(C)(C)N1` [Compound I-404]: the results for the pIC50 in experiment [1] and in experiment [2] were 4.10 to 4.70 and under 4.10, respectively.

Regarding `CC1(C)CC(NC(=O)c2ccc(Cn3cnc4ccccc43)cc2)CC(C)(C)N1` [Compound I-405], the pIC50 in experiment [1] is under 4.10; in experiment [2] it was 4.10 to 4.70.

Take `CC1(C)CC(NC(=O)c2ccc(N3CCC(c4ccccc4)C3)c(Cl)c2)CC(C)(C)N1` (stereo not shown) [Compound I-413]: the pIC50 in experiment [1] was under 4.10; in experiment [2], 4.10 to 4.70.

On to `CNCc1cccc(Oc2ccc(C(=O)NC3CC(C)(C)NC(C)(C)C3)cn2)c1` [Compound I-415], for which the results for the pIC50 in experiment [1] and in experiment [2] were under 4.10 and 4.10 to 4.70, respectively.

Turning to `CN1CCN(c2cccc(Oc3ccc(C(=O)NC4CC(C)(C)NC(C)(C)C4)cc3Cl)c2)CC1` [Compound I-417], the pIC50 is under 4.10 in experiment [1] and 4.10 to 4.70 in experiment [2].

In the case of `CC1(C)CC(NC(=O)c2ccc(Oc3cccc4c3CCNC4)c(Cl)c2)CC(C)(C)N1` [Compound I-423], the results for the pIC50 in experiment [1] and in experiment [2] were 4.10 to 4.70 and over 5.30, respectively.

As for `N#Cc1ccccc1Oc1ccc(C(=O)NC2CCSCC2)cc1Cl` [Compound I-427], the pIC50 in experiment [1] and in experiment [2] was under 4.10 in each case.

On to `CC1(C)CC(NC(=O)c2ccc(Oc3cccc(-c4cnccn4)c3C#N)c(Cl)c2)CC(C)(C)N1` [Compound I-428], for which the pIC50 in experiment [1] was 4.70 to 5.30; in experiment [2] it was over 5.30.

On to `CC1(C)CC(NC(=O)N2CCC(Oc3cccc(-c4cn[nH]c4)c3C#N)CC2)CC(C)(C)N1` [Compound I-429], for which the pIC50 is under 4.10 in experiment [1] and 4.10 to 4.70 in experiment [2].

Consider `CC1(C)CC(NC(=O)c2ccc(C(=O)c3ccccc3)cc2)CC(C)(C)N1` [Compound I-431], for which the values for the pIC50 in experiment [1] and in experiment [2] were under 4.10 and 4.10 to 4.70, respectively.

`CC1(C)CC(NC(=O)c2ccc(Oc3cccc(-c4ccncn4)c3C#N)c(Cl)c2)CC(C)(C)N1` [Compound I-480, 3-Chloro-4-(2-cyano-3-(pyrimidin-4-yl)phenoxy)-N-(2,2,6,6-tetramethylpiperidin-4-yl)benzamide]: the pIC50 in experiment [1] and in experiment [2] was over 5.30 each time.

For the molecule `CC1(C)CC(NC(=O)c2ccc(Oc3cccc(N4CCNCC4)c3)c(Cl)c2)CC(C)(C)N1` [Compound I-493], the pIC50 in experiment [1] is under 4.10; in experiment [2], 4.10 to 4.70.

As for `CC(=O)N1CCN(c2cccc(Oc3ccc(C(=O)NC4CC(C)(C)NC(C)(C)C4)cc3Cl)c2)CC1` [Compound I-499], the pIC50 in experiment [1] is under 4.10; in experiment [2], 4.10 to 4.70.

As for `CC1(C)CC(OC(=O)c2ccc(Oc3cccc(-c4ccnnc4)c3C#N)c(Cl)c2)CC(C)(C)N1` [Compound I-504, 2,2,6,6-tetramethylpiperidin-4-yl 3-chloro-4-(2-cyano-3-(pyridazin-4-yl)phenoxy)benzoate], the pIC50 in experiment [1] and in experiment [2] was over 5.30 throughout.

`CC1(C)CC(NC(=O)c2ccc(Oc3cccc(-c4ccnnc4)c3C#N)c(Cl)c2)CC(C)(C)S1(=O)=O` [Compound I-533]: the values for the pIC50 in experiment [1] and in experiment [2] were under 4.10 and over 5.30, respectively.

With `CC(=O)N1CCC(c2cccc(Oc3ccc(C(=O)NC4CC(C)(C)NC(C)(C)C4)cc3)c2C#N)CC1` [Compound I-536], the pIC50 was 4.10 to 4.70 in experiment [1] and over 5.30 in experiment [2].

`CC1(C)CC(NC(=O)c2ccc(Oc3cccc(-c4ccnnc4)c3C#N)c(Cl)c2)CC(C)(C)C1O` (stereo not shown) [Compound I-548]: the pIC50 was 4.10 to 4.70 in experiment [1] and over 5.30 in experiment [2].

In the case of `CCOc1cc(-c2cccc(Oc3ccc(C(=O)NC4CC(C)(C)NC(C)(C)C4)cc3Cl)c2C#N)ccn1` [Compound I-556], the results for the pIC50 in experiment [1] and in experiment [2] were under 4.10 and over 5.30, respectively.

On to `CC1(C)CC(NC(=O)c2ccc(Oc3cccc(-c4ccc(O)nc4)c3C#N)c(Cl)c2)CC(C)(C)N1` [Compound I-558], for which the pIC50 in experiment [1] and in experiment [2] was over 5.30 each time.

Consider `CC1(C)CC(NC(=O)c2ccc(Oc3cccc(C4CCCO4)c3C#N)c(Cl)c2)CC(C)(C)N1` (stereo not shown) [Compound I-560], for which the pIC50 is under 4.10 in experiment [1] and over 5.30 in experiment [2].

In the case of `CC1(C)CC(NC(=O)c2ccc(Oc3cccc(-c4ccnc(C#N)c4)c3C#N)c(Cl)c2)CC(C)(C)N1` [Compound I-561], the negative logarithm of the IC50 (pIC50) in experiment [1] and in experiment [2] was over 5.30 throughout.

Regarding `CC1(C)CC(NC(=O)c2ccc(Oc3cccc(-c4ccnnc4)c3C#N)c(Cl)c2)CC(C)(C)C1=O` [Compound I-564], the pIC50 is under 4.10 in experiment [1] and over 5.30 in experiment [2].

Consider `CC1(C)CC(NC(=O)c2ccc(Oc3cccc(-c4cncc(C#N)c4)c3C#N)c(Cl)c2)CC(C)(C)N1` [Compound I-571], for which the pIC50 in experiment [1] and in experiment [2] was over 5.30 throughout.

As for `Cc1cnccc1-c1cccc(Oc2ccc(C(=O)NC3CC(C)(C)NC(C)(C)C3)cc2Cl)c1C#N` [Compound I-572], the negative-log IC50 (pIC50) in experiment [1] and in experiment [2] was over 5.30 in each case.

Consider `COc1cc(-c2cccc(Oc3ccc(C(=O)NC4CC(C)(C)NC(C)(C)C4)cc3Cl)c2C#N)cc(C)n1` [Compound I-573], for which the pIC50 was 4.70 to 5.30 in experiment [1] and over 5.30 in experiment [2].

Take `CC1(C)CC(NC(=O)c2ccc(Oc3cccc(-c4ccnc(O)c4)c3C#N)c(Cl)c2)CC(C)(C)N1` [Compound I-583]: the pIC50 in experiment [1] and in experiment [2] was over 5.30 in each case.

As for `Cc1cc(-c2cccc(Oc3ccc(C(=O)NC4CC(C)(C)NC(C)(C)C4)cc3Cl)c2C#N)ccn1` [Compound I-584], the pIC50 in experiment [1] and in experiment [2] was over 5.30 each time.

As to `Cc1cc(-c2cccc(Oc3ccc(C(=O)NC4CC(C)(C)NC(C)(C)C4)cc3Cl)c2C#N)cc(C)n1` [Compound I-585], the pIC50 in experiment [1] was 4.70 to 5.30; in experiment [2] it was over 5.30.

With `CC1(C)CC(NC(=O)c2ccc(Oc3cccc(-c4ccncc4Cl)c3C#N)c(Cl)c2)CC(C)(C)N1` [Compound I-586], the pIC50 in experiment [1] and in experiment [2] was over 5.30 throughout.
